Results on 8 compounds are retold here after patent US8580778B2, “Substituted dihydropyrazolones and their use” (Bayer Intellectual Property GmbH, priority 2008, dated 2013).

Structures are written as SMILES. pIC50: −log10 of the molar value. Where a name gives a salt, the structure may show the parent alone.

This assay concerns the target HIF prolyl hydroxylase. Description: Inhibition of the activity of HIF prolyl hydroxylase (VBC complex binding test). It counts as biochemical. Particulars: cell lysate containing prolyl hydroxylase. Here is the method: 1.a) Inhibition of the Activity of HIF Prolyl Dydroxylase:
Hydroxylated HIF bonds specifically to the von Hippel-Lindau protein-elongin B-elongin C complex (VBC complex). This interaction occurs only if HIF is hydroxylated on a conserved prolyl radical. It is the basis for the biochemical determination of HIF prolyl hydroxylase activity. The test is carried out as described [Oehme F., Jonghaus W., Narouz-Ott L., Huetter J., Flamme I., Anal. Biochem. 330 (1), 74-80 (2004)]:
A clear 96-well microtiter plate coated with NeutrAvidin HBC (Pierce) is incubated with blocker casein for 30 minutes. The plate is then washed three times with 200 μl each time of wash buffer (50 mM Tris, pH 7.5, 100 mM NaCl, 10% (v/v) blocker casein, 0.05% (v/v) Tween 20) per well. The peptide biotin-DLDLEMLAPYIPMDDDFQL (Eurogentec, 4102 Seraing, Belgium) is added in a concentration of 400 nM in 100 μl wash buffer. This peptide serves as a substrate for the prolyl hydroxylation and is bonded to the microtiter plate. After incubation for 60 minutes, the plate is washed three times with wash buffer, incubated with 1 mM biotin in blocker casein for 30 minutes and then washed again three times with wash buffer.
To carry out the prolyl hydroxylase reaction, the peptide substrate bonded to the plate is incubated with a cell lysate containing prolyl hydroxylase for 1 to 60 minutes. The reaction takes place in 100 μl reaction buffer (20 mM Tris, pH 7.5, 5 mM KCl, 1.5 mM MgCl2, 1 μM-1 mM 2-oxoglutarate, 10 μM FeSO4, 2 mM ascorbate) at room temperature. The reaction mixture moreover contains various concentrations of the prolyl hydroxylase inhibitor to be tested. The test substance is preferably, but not exclusively, employed at concentrations of between 1 nM and 100 μM. The reaction is stopped by washing the plate three times with wash buffer.
For quantitative determination of the prolyl hydroxylation, a fusion protein which contains both thioredoxin from E. coli and the VBC complex in 80 μl bonding buffer (50 mM Tris, pH 7.5, 120 mM NaCl) is added. After 15 minutes, 10 μl of a solution of polyclonal anti-thioredoxin antibodies from rabbit in bonding buffer are added. After a further 30 minutes, 10 μl of a solution of anti-rabbit immunoglobulin coupled to horseradish peroxidase in bonding buffer are added. After incubation at room temperature for 30 minutes, the plate is washed three times with wash buffer in order to remove non-bonded VBC complex and antibodies. To determine the amount of bonded VBC complex, the plate is incubated with TMB for 15 minutes. The colour reaction is ended by addition of 100 μl 1 M sulphuric acid. The amount of bonded VBC complex is determined by measurement of the optical density at 450 nm. It is proportional to the amount of hydroxylated proline in the peptide substrate.
Alternatively, a VBC complex coupled to europium (Perkin Elmer) can be used for detection of the prolyl hydroxylation. In this case, the amount of bonded VBC complex is determined by the fluorescence with respect to time. The use of VBC complex labelled with [^35S]-methionine is moreover possible. For this, the radioactively labelled VBC complex can be prepared by in vitro transcription-translation in reticulocyte lysate.
As a reminder, the pIC50 is the negative decadic logarithm of the IC50, by convention in mol/L. As to `N#Cc1cn(-c2c[nH]n(-c3cc(N4CCCOCC4)ncn3)c2=O)nn1` [Example 26, 1-{2-[6-(1,4-Oxazepan-4-yl)pyrimidin-4-yl]-3-oxo-2,3-dihydro-1H-pyrazol-4-yl}-1H-1,2,3-triazole-4-carbonitrile], the negative-log IC50 (pIC50) is 6.42.

`O=C(O)C1CN(c2cc(-n3[nH]cc(-n4ccnc4)c3=O)ncn2)C1` [Example 5, 1-{6-[4-(1H-Imidazol-1-yl)-5-oxo-2,5-dihydro-1H-pyrazol-1-yl]pyrimidin-4-yl}azetidine-3-carboxylic acid] gave a pIC50 of 6.27.

`CN(C)C1CN(c2cc(-n3[nH]cc(-n4ccnn4)c3=O)ncn2)C1` [Example 9, 2-{6-[3-(Dimethylamino)azetidin-1-yl]pyrimidin-4-yl}-4-(1H-1,2,3-triazol-1-yl)-1,2-dihydro-3H-pyrazol-3-one dihydrochloride] gave a pIC50 of 6.12.

As to `O=c1c(-n2ccnn2)c[nH]n1-c1cc(N2CCN(C3CCC3)CC2)ncn1` [Example 2, 2-[6-(4-Cyclobutylpiperazin-1-yl)pyrimidin-4-yl]-4-(1H-1,2,3-triazol-1-yl)-1,2-dihydro-3H-pyrazol-3-one], the pIC50 is 6.06.

On to `N#Cc1cn(-c2c[nH]n(-c3cc(N4CCCCO4)ncn3)c2=O)nn1` [Example 29, 1-{2-[6-(1,2-Oxazinan-2-yl)pyrimidin-4-yl]-3-oxo-2,3-dihydro-1H-pyrazol-4-yl}-1H-1,2,3-triazole-4-carbonitrile], for which the pIC50 is 6.77.

On to `N#Cc1cn(-c2c[nH]n(-c3cc(N4CC(F)(F)C4)ncn3)c2=O)nn1` [Example 21, 1-{2-[6-(3,3-Difluoroazetidin-1-yl)pyrimidin-4-yl]-3-oxo-2,3-dihydro-1H-pyrazol-4-yl}-1H-1,2,3-triazole-4-carbonitrile], for which the pIC50 is 7.15.

`N#Cc1cn(-c2c[nH]n(-c3cc(N4CCCOCC4)ncn3)c2=O)cn1` [Example 25, 1-{2-[6-(1,4-Oxazepan-4-yl)pyrimidin-4-yl]-3-oxo-2,3-dihydro-1H-pyrazol-4-yl}-1H-imidazole-4-carbonitrile] showed a pIC50 of 6.74.

Compound `N#Cc1cn(-c2c[nH]n(-c3cc(N4CCC(F)(F)C4)ncn3)c2=O)nn1` [Example 17, 1-{2-[6-(3,3-Difluoropyrrolidin-1-yl)pyrimidin-4-yl]-3-oxo-2,3-dihydro-1H-pyrazol-4-yl}-1H-1,2,3-triazole-4-carbonitrile] gave a pIC50 of 6.89.
